Counter-ions that a name gives are not always drawn.
Experiments:
5-lipoxygenase = target: T1, 5-lipoxygenase (Rattus norvegicus, UniProt P12527); assay: 5-LIPOX: inhibition of Ca++ ionophore (A23187)-induced release of 5-lipoxygenase products from [14C]-arachidonic acid pre-labelled rat peritoneal neutrophils; type: cell-based; conditions: A23187-induced release of leukotriene D4 and 5-HETE, determined graphically from dose-response curves, read-out: 5-LIPOX: concentration of test compound causing 50% inhibition of control response
T1 construct: pre-labelled rat peritoneal neutrophils; endogenous in cells; host or cells: rat peritoneal neutrophils
T1 sequence (P12527 1-673): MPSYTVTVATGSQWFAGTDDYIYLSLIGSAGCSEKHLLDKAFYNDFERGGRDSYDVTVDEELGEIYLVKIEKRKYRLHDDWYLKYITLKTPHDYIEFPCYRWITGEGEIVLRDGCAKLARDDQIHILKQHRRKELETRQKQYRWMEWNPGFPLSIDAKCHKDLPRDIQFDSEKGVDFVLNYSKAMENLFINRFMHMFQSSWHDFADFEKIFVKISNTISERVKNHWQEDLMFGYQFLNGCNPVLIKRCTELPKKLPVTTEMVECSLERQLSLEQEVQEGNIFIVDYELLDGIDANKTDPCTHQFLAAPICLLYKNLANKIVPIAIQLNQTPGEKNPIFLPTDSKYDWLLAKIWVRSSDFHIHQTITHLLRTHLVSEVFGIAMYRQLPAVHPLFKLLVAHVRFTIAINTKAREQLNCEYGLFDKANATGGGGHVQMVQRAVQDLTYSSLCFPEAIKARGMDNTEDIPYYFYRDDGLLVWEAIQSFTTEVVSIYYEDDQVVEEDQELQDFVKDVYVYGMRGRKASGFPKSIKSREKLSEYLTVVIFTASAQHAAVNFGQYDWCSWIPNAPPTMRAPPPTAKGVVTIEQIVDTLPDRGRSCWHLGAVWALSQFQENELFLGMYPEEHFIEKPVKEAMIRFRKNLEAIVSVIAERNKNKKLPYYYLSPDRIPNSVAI
Text: A. 5-LIPOX Inhibition of the Ca^++ ionophore (A23187)-induced release of 5-lipoxygenase products ([…] and 5-HETE) from [^14 C]-arachidonic acid pre-labelled rat peritoneal neutrophils. Assayed by a modification of the method reported by Ahnfelt-Ronne et al [Biochemical Pharmacology, Vol. 31, No. 16, pp. 2619-2624 (1982)]. The data presented are micromolar concentrations of test compound causing 50% inhibition of control response determined graphically from dose-response curves.

LTD4 receptor = target: T2, LTD4 receptor (Cavia porcellus, UniProt Q2NNR5); assay: LTD4 RECEPTOR: inhibition of specific binding of [3H]-LTD4 to a membrane preparation of guinea-pig lung tissue; conditions: [3H]-LTD4, guinea-pig lung membrane preparation; determined graphically from dose-response curves; read-out: LTD4 receptor: concentration of test compound causing 50% inhibition of specific binding
T2 construct: a membrane preparation of guinea-pig lung tissue; from tissue; host or cells: guinea-pig lung membranes
T2 sequence (Q2NNR5 1-340): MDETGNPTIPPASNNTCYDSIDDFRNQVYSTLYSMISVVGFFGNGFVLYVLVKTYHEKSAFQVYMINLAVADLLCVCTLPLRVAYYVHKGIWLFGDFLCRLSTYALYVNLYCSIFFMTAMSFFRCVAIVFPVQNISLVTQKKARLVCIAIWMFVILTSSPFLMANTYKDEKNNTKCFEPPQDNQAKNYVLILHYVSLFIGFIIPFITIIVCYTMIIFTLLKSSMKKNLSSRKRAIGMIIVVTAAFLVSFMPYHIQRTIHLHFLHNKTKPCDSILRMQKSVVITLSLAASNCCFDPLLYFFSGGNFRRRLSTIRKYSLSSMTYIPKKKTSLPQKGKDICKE
Text: B. LTD4 RECEPTOR Inhibition of the specific binding of [^3 H]-LTD4 to a membrane preparation of guinea-pig lung tissue assayed by a modification of a method reported by Bruns et al [Life Sciences, Vol. 33, pp. 645-653 (1983)]. The data presented are micromolar concentrations of test compound causing 50% inhibition of specific binding determined graphically from dose-response curves.

SMILES	IC50 (5-lipoxygenase) [µM]	IC50 (LTD4 receptor) [µM]
CCCCOc1ccc(SC2CCCc3cccnc32)cc1 (stereo not shown) [Example 17, 8-(4-n-Butoxyphenylthio)-5,6,7,8-tetrahydroquinoline hydrochloride]	3.7	–
NS(=O)(=O)c1ccc(SC2CCCc3cccnc32)cc1 (stereo not shown) [Example 12, 4-(5,6,7,8-tetrahydroquinoline-8-ylthio)-benzenesulfonamide]	26	–
COC(=O)c1ccc(SC2CCCc3cccnc32)cc1 (stereo not shown) [Example 20, Methyl 4-(5,6,7,8-tetrahydroquinoline-8-ylthio)-benzoate hydrochloride]	18.6	–
Nc1ccc(SC2CCCc3cccnc32)cc1 (stereo not shown) [Example 7, 8-(4-aminophenylthio)-5,6,7,8-tetrahydroquinoline]	25	> 100
O=C(O)c1ccc(SC2CCCc3cccnc32)cc1 (stereo not shown) [Example 16, 4-(5,6,7,8-tetrahydroquinoline-8-ylthio)-benzoic acid]	> 100	–
CCc1ccc(SC2CCCc3cccnc32)cc1 (stereo not shown) [Example 15, 8-(4-ethylphenylthio)-5,6,7,8-tetrahydroquinoline hydrochloride]	4	–
c1cnc2c(c1)CCCC2Sc1ccc2ccccc2c1 (stereo not shown) [Example 9, 8-(2-naphthylthio)-5,6,7,8-tetrahydroquinoline hydrochloride]	2.3	–
Clc1ccc(SC2CCCc3cccnc32)cc1 (stereo not shown) [Example 1, 8-(4-chlorophenylthio)-5,6,7,8-tetrahydroquinoline hydrochloride]	4.2	22.4
Cc1ccc(SC2CCCc3cccnc32)cc1 (stereo not shown) [Example 5, 8-(4-methylphenylthio)-5,6,7,8-tetrahydroquinoline hydrochloride]	3	23.4
COc1ccc(SC2CCCc3cccnc32)cc1 (stereo not shown) [Example 14, 8-(4-methoxyphenylthio)-5,6,7,8-tetrahydroquinoline hydrochloride]	13.2	16.6
Oc1ccc(SC2CCCc3cccnc32)cc1 (stereo not shown) [Example 8, 8-(4-hydroxyphenylthio)-5,6,7,8-tetrahydroquinoline]	14.1	–
O=[N+]([O-])c1ccc(SC2CCCc3cccnc32)cc1 (stereo not shown) [Example 4, 8-(4-nitrophenylthio)-5,6,7,8-tetrahydroquinoline hydrochloride]	12.6	26.3
O=[N+]([O-])c1cc(SC2CCCc3cccnc32)ccc1O (stereo not shown) [Example 21, 8-(4-hydroxy-3-nitrophenylthio)-5,6,7,8-tetrahydroquinoline]	33	–
CCOc1ccc(SC2CCCc3cccnc32)cc1 (stereo not shown) [Example 18, 8-(4-ethoxyphenylthio)-5,6,7,8-tetrahydroquinoline hydrochloride]	11.2	–
CC(=O)Oc1ccc(SC2CCCc3cccnc32)cc1 (stereo not shown) [Example 19, 8-(4-acetoxyphenylthio)-5,6,7,8-tetrahydroquinoline hydrochloride]	45	–
CCCCCC(O)c1cccc(SC2CCCc3cccnc32)c1 (stereo not shown) [Example 11, 8[3-(1-hydroxyhexyl)-phenylthio]-5,6,7,8-tetrahydroquinoline]	5.6	–
N#Cc1ccc(SC2CCCc3cccnc32)cc1 (stereo not shown) [Example 2, 4-(5,6,7,8-tetrahydroquinoline-8-ylthio)-benzonitrile]	31	–
CCCCc1ccc(SC2CCCc3cccnc32)cc1 (stereo not shown) [Example 10, 8-(4-n-butylphenylthio)-5,6,7,8-tetrahydroquinoline hydrochloride]	1.9	–
c1cnc2c(c1)CCCC2Sc1cccc2ccccc12 (stereo not shown) [Example 6, 8-(1-naphthylthio)-5,6,7,8-tetrahydroquinoline]	1.7	52.5

Reference: patent US4847268A, “8-phenylthio-tetrahydroquinolines and anti-allergic use thereof” (Roussel Uclaf, priority 1986, dated 1989)
